Data taken from patent publication US20020006930A1, “Method for stimulating liver regeneration” (priority 2000, published 2002).
Entries after “also recorded” stand apart in the source; their conditions may differ.

How the values were obtained:
c-fos mRNA = test: Hepatic c-fos mRNA expression after 2/3 PHX (northern blot); format: in vivo, rat
Protocol: Animals were divided into four groups: sham procedures, PHX, PHX+L-NAME (Sigma), a Nos antagonist, and PHX+L-NAME+3morpholinosydnonimine (SIN-1, Alexis Corp.), a NO donor. Animals were anesthetized by sodium pentobarbital (6.5 mg/100 g. i.p; MTC Pharmaceuticals). Anesthesia was maintained using a continuous i.v. infusion (Harvard infusion pump, model 2720) of sodium pentobarbital (1.08 mg/ml saline, 1.0 ml/100 g/hr) via a cannula inserted into the femoral vein (PE50), Intramedic Clay Adams Brand, Becton-Dickinson). All surgical procedures were performed between the 10:00 am and 2:00 pm. Arterial blood pressure was monitored via a cannula (PE50, Intramedic Clay Adams Brand, Becton-Dickson) inserted into the femoral artery. To facilitate breathing a tracheotomy was performed using a polyethylene tube (PE240, Intramedic Clay Adams Brand, Becton-Dickinson) inserted into the trachea. Body temperature was maintained at 37.5±0.5° C. by the use of a rectal thermometer (Hanna Instruments) and a heated surgical table (Harvard Apparatus). Laparotomy was performed and a 24 G cather (Optiva™, Johnson and Johnson Medical Inc.) was inserted into the portal vein. The rat was then allowed to stabilize for 30 minutes.
A 0.5 ml bolus of L-NAME (5.0 mg/kg), or saline was infused intravenously over two minutes. Ten minutes later, PHX (resection of the left lateral and median lobes as described by Higgins and Anderson (20) or gentle manipulation of the liver lobes was performed. Resected lobes were litigated using black braided surgical silk (size 0, Ethicon) and excised. […] Fifteen minutes after PHX, or sham manipulation, the remaining liver was removed, slashed and blotted to remove blood, and immediately frozen on dry ice. Portal venous pressure (PVP) was measured, using an R-611 SensorMedics Dynograph Recorder, immediately before and after PHX.
For additional experiments involving PHX+L-NAME, the surgical procedure was exactly the same at that for the ⅔ PHX described above, except that the remaining liver as removed at 30, 45 or 60 minutes after PHX.
Total RNA was isolated by a method modified from Chirgwin et al. (23). Liver tissue was homogenized (Brinkman, Polytron) in lithium chloride/urea (3M/6M; Sima). The homogenized was centrifuged at 25000 rpm (Brinkman L8-70M Ultracentrifuge) for 20 minutes at 4° C. […] The concentration of the RNA was then determined using a spectrophotometer (Ultrospec2000, Pharamacia Biotech). […] The membranes were prehybridized at 42° C. for 3 hours in prehybridization buffer consisting of 5×SSC, 7% SDS (Sigma), sheared denatured salmon sperm DNA (100 μg/ml, Gibco BRL) and 5×Denhardt's solution (Sigma). c-fos mRNA was detected using a 2.1 kb cDNA probe (kindly provided by Dr. C Steer, university of Minnesota, Minneapolis, Minn.). […]

[1] = test system: proliferative factors (PF) in the plasma of PHX rats; test: Hepatocyte primary culture bioassay for proliferative factor (PF) production in plasma after 2/3 PHX; format: in vivo, rat; settings: for reversal of L-NAME-induced blockade/inhibition: PHX rats given L-NAME plus L-arginine, in vivo
Protocol: The production of proliferative factors (PFs) was determined as previously described (21) . Briefly, PHX or PVL was performed as described above. Four hours after PHX or PVL, the diaphragm was cut and a blood sample drawn ([…] per rat) from the right ventricle of the heart using a 21 G 1.5-inch needle and a 10 ml sterile syringe. In a tissue culture hood, the blood was transferred to a sterile centrifuge tube, centrifuged at 2500 g for 20 minutes, and plasma stored at −20° C. The collagenase perfusion and hepatocyte isolation method was modified from Seglen (22), and has been previously described (21). Male Sprahue-Dawley rats (250 g) were anesthetized using sodium pentobarbital (6.5 mg/100 g, i.p.) and livers were perfused according to Seglen (22). Isolated cells were seeded (1×10^5 cells/ml, 2 ml per well) in six-well culture plates and allowed to attach to the plate overnight at 37° C. The next day, unattached cells were washed out of the wells and the starting viable cell number was counted from three randomly selected wells. Trypsin-EDTA (Gibco, BRL) was used to isolate attached hepatocytes from the plate and the hepatocytes were counted using a hemocytometer (Fisher Scientific). Fresh medium and plasma samples from PHX rats (10% final concentration) were added to the rest of the wells (three wells per sample). The medium, containing plasma, was changed at 24 hours. The attached viable cells were harvested at 48 hours. and the final count of viable hepatocytes was determined. The PF levels were expressed as net cell proliferation (viable cell count per well at 48 hours minus starting cell count per well).
The experiment was aimed to develop and optimize a hepatocyte primary culture bioassay to detect proliferative factors (PF) in the plasma or serum of partial hepatectomized (PHX) rats, which could serve as an index of the initiation of liver regeneration cascade.
The bioassay detects the presence of PF by measuring hepatocyte proliferation through a directly counting cell number increases over the culture period using a hemacytometer. The procedure of liver perfusion and hepatocyte purification was adopted from Seglen (1976 Methods Cell Biol. 13, 29) using Sprague Dawley rats. The purified hepatocytes ([…]) were seeded into 6-well culture plates and allowed to attach to the plate overnight at 37° C. The unattached cells were then washed out and the starting cell count was determined from 3 randomly picked wells in the culture after trypsin digestion. Sera collected from ⅔ PHX rats at 1-6 hours post PHX was added to the culture. With a medium change at 24 hours, the final cell counting was performed at 48 hours. The net cell proliferation was expressed as the difference between the counts at 48 hours and starting at hour (0 hr).
The optimized assay conditions ([…] plating concentration, 10% serum, 48 hr culture) were able to detect an increase of PF in PHX rat serum between 1-4 hours after PHX, with a peak activity at 4 hours (unpooled serum n=5/time point, pooled n=5/point). The assay has a high sensitivity to detect PF in ⅓ PHX rat serum (n=7), which was not detectable using the conventional DNA synthesis method.
(§1) To test the hypotheses, an […] hepatocyte primary culture bioassay was developed to detect PF in the plasma of PHX rats as an index of the initial trigger. The PHX surgery was performed according to the conventional method. Liver weight was also measured from the post PHX recovered rats to directly assess liver regeneration in vivo. The level of flow-dependent factors (e.g. adenosine (Ado), NO) was pharmacologically manipulated to test their roles in triggering the liver regeneration cascade.

[2] = test system: proliferative factor (PF) activity in blood after PVL; test: Hepatocyte bioassay for PF activity in blood after selective portal vein branch ligation (PVL); format: in vivo, rat
Source text: Rats were divided into four groups: sham PVL, PVL, PVL+L-NAME and PVL+L-NAME+SIN-1. Surgical procedures were the same as described for PHX except that liver lobes were not ligated and […]. Rather, the left branch of the portal vein was carefully isolated and […]. The left branch of the portal vein was carefully isolated from the surrounding hepatic artery, hepatic nerves, bile duct and lymphatics. A thread was slipped around the left branch of the portal vein and the animal was allowed to recover for one hour. Following the recovery period, saline or L-NAME was administered as described for the PHX group, and the PVL+L-NAME+SIN-1 group received SIN-1 as indicated above. […] PVP was measured immediately before and after PVL, as described for PHX surgery.
The production of proliferative factors (PFs) was determined as previously described (21) . […] The next day, unattached cells were washed out of the wells and the starting viable cell number was counted from three randomly selected wells. Trypsin-EDTA (Gibco, BRL) was used to isolate attached hepatocytes from the plate and the hepatocytes were counted using a hemocytometer (Fisher Scientific). […] The attached viable cells were harvested at 48 hours. and the final count of viable hepatocytes was determined. The PF levels were expressed as net cell proliferation (viable cell count per well at 48 hours minus starting cell count per well).

cultured hepatocytes = test: Cultured hepatocytes exposed to L-NAME in vitro; format: cell-based, rat; settings: L-NAME at concentrations estimated to occur in the in vivo experiments
Source text: To determine whether NO served as a trigger to initiate a further cascade of events or whether it served as a direct proliferating stimulus on hepatocytes, the cultured hepatocytes were exposed to concentrations of L-NAME estimated to occur in the in vivo experiments.

two-thirds PHX rats = test: Restoration of liver weight and survival after two-thirds PHX; format: in vivo, rat; settings: for post surgery survival rate: 36-44 hours
Protocol: The extent of liver regeneration can be assessed from a number of parameters, the most direct being the restoration of liver weight following PHX. […] Unfortunately, the liver regeneration studies are made complex by the well known observation that NO synthase blockade can potentiate the toxic reaction to inflammatory conditions. […] This can have been a factor in these studies where 6 of 14 rats died in the high dose group between 36 and 44 hours. These animals had only 18±4.7% regeneration. The ability to inhibit regeneration is compatible with a triggering role for NO.
as §1

CC(=O)NC(C(=O)O)C(C)(C)SN=O (racemic) [SNAP, S-nitroso-N-acetyl-D,L-penacillamine]
c-fos mRNA expression (c-fos mRNA; after PHX, SNAP 5 mg/kg): potentiates | c-fos mRNA expression (c-fos mRNA; sham operated livers, SNAP 5 mg/kg): no effect

N=C(N)NCCC[C@H](N)C(=O)O [L-arginine]
reversal of L-NAME-induced blockade/inhibition [1]: reversed the L-NAME inhibitory effect | reversal of L-NAME-induced blockade/inhibition ([1]; listed as L-Arginine): significantly reversed the inhibition by L-NAME

Nc1ncnc2c1ncn2[C@@H]1O[C@H](CO)[C@@H](O)[C@H]1O [Ado, adenosine]
effect on PF generation ([1]; 2/3 PHX rats, adenosine level manipulated): no significant effects

N=c1c[n+](N2CCOCC2)[n-]o1 [SIN-1, 3-morpholinosydnonimine]
reversal of L-NAME inhibition of PF activity ([2]; PF activity in blood four hours after): reversed the inhibition | reversal of L-NAME inhibition of PF activity ([1]; PHX, PF activity in blood four hours after): reversed the inhibition

COC(=O)[C@@H](N)CCCNC(=N)N[N+](=O)[O-] [L-NAME, N-nitro-Larginine methyl ester]
direct effect on hepatocyte proliferation in vitro (cultured hepatocytes): positive proliferative stimulus | post surgery survival rate (two-thirds PHX rats; L-NAME + PHX group (n=14), PHX control 100%): about 50% | post surgery survival rate (two-thirds PHX rats; L-NAME-no-PHX control group (n=6)): 100% | restoration of liver weight (regeneration) (two-thirds PHX rats; 48 hours post-PHX, low dose of L-NAME): did not significantly inhibit regeneration | rats that died (two-thirds PHX rats; high dose L-NAME group after PHX, between 36 and 44 hours): 6 of 14 | regeneration in animals that died (two-thirds PHX rats; high dose L-NAME group, rats that died between 36 and 44 hours): 18±4.7% | c-fos mRNA expression at 30, 45 and 60 minutes compared to 15 minutes after PHX (c-fos mRNA; L-NAME 5.0 mg/kg i.v. prior to PHX): no difference in c-fos mRNA expression | PF activity in blood ([2]; four hours after, L-NAME): inhibited | appearance/generation of PF in the plasma ([1]; two-thirds PHX rats, L-NAME i.v. at early time points after PHX, 4 hours peak PF): block 4 hours peak PF generation; also recorded: blocked the appearance of PF in the plasma; also recorded: inhibited | dose giving maximum inhibition of PF appearance ([1]; two-thirds PHX rats, i.v., not further inhibited by 5.0 mg/kg): 2.5 mg/kg

CCCOc1ccccc1-c1nc2nn[nH]c2c(=O)[nH]1 [Zaprinast]
c-fos mRNA expression (c-fos mRNA; after ⅔ PHX, Zaprinast 10 and 30 mg/kg): potentiated
